≈ marks a conversion by molar mass, not a printed value. Where “and” joins values, the source holds several entries; their conditions need not be identical. Equal values may be shown once. Read-outs that look alike come from different tables or passages of the source.
Columns and labels:
Propionibacterium acnes = test: Anti-bacterial assay (growth inhibition, MIC/MBC by broth microdilution); assay type: cell-based; conditions: for activity against P. acnes (in words): at their maximum solubility; for Inhibition Rate (P. acnes growth): concentration 100 μg/mL
Protocol: The antibacterial assay was based mostly on the methods described by Tanaka et al. with slight modification. Propionibacterium acne (NBRC 107605) was used for the antibacterial assay. A single colony of the test strain was taken and 5 mL of Gifu anaerobic medium (GAM) broth (Nissui, Tokyo) was added to it. This culture was incubated at 37 °C for 30 h. It was then added to the bacterial suspension to prepare a bacterial concentration at 10^5 CFU/mL. The bacterial solution was used for the subsequent antibacterial assay. Each compound was dissolved in DMSO, and benzalkonium chloride (Wako) was used as a positive control. The plate was incubated at 37 °C for 30 h. Finally, bacterial growth was measured by a microplate reader at 630 nm. The MIC and MBC were evaluated by the standard broth microdilution method.

RBL-2H3 cells [1] = test: Cell viability of RBL-2H3 cells (parallel MTT); assay type: cell-based, rat; conditions: 25 μg/ml, RBL-2H3 cells
Protocol: (§1) The anti-allergy assay was based mostly on the methods described by Zhu et al. and Yun et al. with slight modification. Rat basophilic leukemia (RBL-2H3) cells were obtained from the Riken Bio-resource Center Cell Bank (Tsukuba, Japan). RBL-2H3 cells were incubated in EMEM medium containing 10% FBS and 1% antibiotics–antimycotics at 37 °C. The cells were seeded on a 96-well plate (2 × 10^5 cells/well). After 24 h of incubation, the medium was supplemented with 0.5 μg/mL anti-DNP (dinitrophenol) mouse immunoglobulin E (IgE) (Sigma-Aldrich). After an additional 24 h of incubation, the medium was replaced with 100 μL of Tyrode buffer. The sample dissolved in DMSO (<0.5% per well) was added, and the cell plate was incubated again for 30 min, then replaced with 100 μL of tyrode buffer containing 50 μg/mL DNP-bovine serum albumin (BSA) (Invitrogen, Carlsbad, CA, USA). After 1 h of incubation, 50 μL of the supernatant was collected from each well and mixed with 50 μL of substrate solution (p-nitrophenyl-N-acetyl-β-glucosaminide, 2 mM; Sigma-Aldrich) in a new 96-well plate. The mixture was incubated at room temperature on a shaker for 3 h. Finally, 100 μL of stop solution was added, and the absorbance was read at 405 nm. A parallel MTT experiment was performed to measure the cell viability. The MTT experiment was done exactly as described.

B16 melanoma cells [2] = test: Anti-melanogenesis assay (melanin content); assay type: cell-based, mouse
Protocol: (§2) This assay was performed as described by Arung et al.. The mouse melanoma cell line B16 was obtained from the Riken Bioresource Center Cell Bank (Tsukuba, Japan). The B16 melanoma cells were maintained in Eagle’s Minimal Essential Medium (EMEM, Nissui Chemical, Tokyo) supplemented with 10% (v/v) fetal bovine serum (FBS; Gibco, Carlsbad, CA, USA) and 0.09 mg/mL theophylline (Sigma-Aldrich, St. Louis, MO, USA). […] After 24 h, test samples were dissolved in DMSO (<0.2% per well) and sample solution were added to each well. Arbutin (Tokyo Kasei Kogyo, Tokyo) was used as a positive control. The cells were incubated for an additional 48 h, and then the medium was replaced with fresh medium containing each sample again. After 24 h, the melanin content and the cell viability were measured using a microplate reader (BioTek-ELX800, BioTek Instruments, Winooski, VT, USA) at 405 nm and 570 nm, respectively. Cell viability was measured using the MTT (3-(4,5-dimethylthiazol-2-yl)-2,5-diphenyltetrazolium bromide) method.

NHDF cells = test: Skin type I collagen synthesis promoting assay (ELISA, with MTT); assay type: cell-based, human; conditions: 5 μg/mL, fold of control
Protocol: The assay for measuring the promotion of skin collagen synthesis was described by Kishikawa et al.. Adult NHDF cells (Lonza, Tokyo) were routinely maintained in 10% FBS and 1% antibiotic-antimycotic (Invitrogen) in Dulbecco’s modified Eagle’s medium (DMEM, Wako). After growing to confluence, cells at a density of 5 × 10^3 cells/well were seeded on 96-well plates for 24 h before the treatment. The medium was replaced with a mixture of 1 μL of sample solution (DMSO < 0.5% per well) and 99 μL of DMEM supplemented with 0.5% FBS. After 72 h of cultivation, the amount of collagen in the medium was measured using a human type I collagen enzyme-linked immunosorbent assay (ELISA) kit (ACEL, Kanagawa, Japan). The amount of collagen production was calculated using a standard curve prepared by measurement by the same ELISA. The cells remaining in the 96-well plate were subjected to an MTT assay. Ascorbic acid (100 μM, Wako) was used as a positive control.

B16 melanoma cells [3] = test: Cell viability of B16 melanoma cells (MTT); conditions: for Inhibition rate (100% − cell viability): B16 cells; for CC50 cell viability / CC50: B16 melanoma cells, MTT; for CC50: read-out: CC50 (cell viability)
Protocol: as §2

in vitro = conditions: mouse
Protocol: as §2

[4] = Cell viability of RBL-2H3 cells (parallel MTT); assay type: cell-based, rat; conditions: rat
Protocol: as §1

RBL-2H3 cells [5] = test: β-hexosaminidase release from IgE-stimulated RBL-2H3 mast cells; assay type: cell-based, rat; conditions: Rattus norvegicus, RBL-2H3
Protocol: as §1

[6] = B16 melanoma cells, read-out: IC50 (melanin synthesis)
[7] = Mus musculus, B16 melanoma cells, read-out: IC50 (melanin synthesis)
[8] = Mus musculus, B16 melanoma cells, read-out: IC50 melanin
[9] = Mus musculus, B16, read-out: Inhibition rate (100% − melanin synthesis)

| MIC (Propionibacterium acnes; P. acnes, broth microdilution) | IC50 melanin (B16 melanoma cells [2]; B16 melanoma cells) | IC50 (B16 melanoma cells [2]; [6]) | SMILES | MBC (Propionibacterium acnes; P. acnes, broth microdilution) | activity against P. acnes (in words) (Propionibacterium acnes) | Inhibition Rate (P. acnes growth) (Propionibacterium acnes) | Cell viability (RBL-2H3 cells [1]) | Inhibition rate (100% − melanin synthesis) (B16 melanoma cells [2]; 1 μg/ml, B16 cells) | Inhibition rate (100% − melanin synthesis) (B16 melanoma cells [2]; 2.5 μg/ml, B16 cells) | Inhibition rate (100% − melanin synthesis) (B16 melanoma cells [2]; 5 μg/ml, B16 cells) | Inhibition rate (100% − melanin synthesis) (B16 melanoma cells [2]; 10 μg/ml, B16 cells) | Inhibition rate (100% − melanin synthesis) (B16 melanoma cells [2]; 20 μg/ml, B16 cells) | CP/CV value (collagen production %/cell viability %) (NHDF cells) | Inhibition rate (100% − cell viability) (B16 melanoma cells [3]; 1 μg/ml) | Inhibition rate (100% − cell viability) (B16 melanoma cells [3]; 2.5 μg/ml) | Inhibition rate (100% − cell viability) (B16 melanoma cells [3]; 5 μg/ml) | Inhibition rate (100% − cell viability) (B16 melanoma cells [3]; 10 μg/ml) | Inhibition rate (100% − cell viability) (B16 melanoma cells [3]; 20 μg/ml) | CC50 cell viability (B16 melanoma cells [3]) | CC50 (B16 melanoma cells [3]) | other results |
| --- | --- | --- | --- | --- | --- | --- | --- | --- | --- | --- | --- | --- | --- | --- | --- | --- | --- | --- | --- | --- | --- |
| 100 µg/mL (≈ 158 µM) | > 20.0 µg/mL | > 30.9 µM | C[C@@H]1CC[C@]2(C(=O)O)CC[C@]3(C)C(=CC[C@@H]4[C@@]5(C)C[C@@H](O)[C@H](OC(=O)/C=C/c6ccc(O)cc6)C(C)(C)[C@@H]5CC[C@]43C)[C@@H]2[C@]1(C)O (relative stereo) [Compound 17, 3-O-trans-p-coumaroyl tormentic acid] | 200 µg/mL (≈ 315 µM) | active | 101.4 ± 2.1% | 99.8 ± 7.0% | 2.8 ± 0.9% | 6.2 ± 1.7% | 11.1 ± 0.6% | 29.4 ± 6.8% | 30.5 ± 6.0% | 1.2 | 0.0 ± 8.4% | 5.1 ± 6.0% | 10.7 ± 10.0% | 41.1 ± 9.2% | 61.0 ± 1.6% | 15.6 µg/mL (≈ 24.6 µM) | 24 µM |  |
| 100 µg/mL (≈ 158 µM) | > 20.0 µg/mL | > 30.9 µM | C[C@@H]1CC[C@]2(C(=O)O)CC[C@]3(C)C(=CC[C@@H]4[C@@]5(C)C[C@@H](O)[C@H](OC(=O)/C=C\c6ccc(O)cc6)C(C)(C)[C@@H]5CC[C@]43C)[C@@H]2[C@]1(C)O (relative stereo) [Compound 18, 3-O-cis-p-coumaroyl tormentic acid] | 200 µg/mL (≈ 315 µM) | active | 103.5 ± 2.2% | 104.6 ± 6.7% | 0.0 ± 2.1% | 0.0 ± 5.3% | 0.0 ± 3.8% | 35.6 ± 1.1% | 47.1 ± 6.0% | 1.1 | 7.0 ± 8.8% | 6.6 ± 11.1% | 12.6 ± 8.4% | 42.4 ± 14.9% | 80.1 ± 9.5% | 12.6 µg/mL (≈ 19.8 µM) | 19.5 µM |  |
|  |  |  | OC[C@H]1O[C@@H](Oc2ccc(O)cc2)[C@H](O)[C@@H](O)[C@@H]1O [Arbutin, reference compound] |  |  |  |  |  |  |  |  |  |  |  |  |  |  |  |  |  | IC50 (B16 melanoma cells [2]; [7]): 976 µM; CC50 at 72 h (in vitro): 1.82 mM |
|  |  |  | C[C@H]1[C@H](C)CC[C@]2(CO)CC[C@]3(C)C(=CC[C@@H]4[C@@]5(C)CC[C@H](O)C(C)(C)[C@@H]5CC[C@]43C)[C@H]12 [Compound 3, Uvaol] |  |  |  |  |  |  |  |  |  |  |  |  | 4.0 ± 7.6% | 10.8 ± 6.8% | 6.5± 7.4% |  |  | inhibition at 50 µg/mL (Propionibacterium acnes; Cutibacterium acnes, concentration 50 μg/mL, read-out: Inhibition Rate (P. acnes growth)): < 0%; viability at 25 μg/ml ([4]; 25 μg/ml, RBL-2H3 cells, read-out: Cell viability): 110 ± 10.2%; inhibition at 25 µg/mL (RBL-2H3 cells [5]; 25 μg/mL, read-out: Inhibition Rate (β-hexosaminidase release)): 29.9 ± 3.3%; inhibition at 5 µg/mL (B16 melanoma cells [2]; Mus musculus, 5 μg/ml, B16 cells, read-out: Inhibition rate (100% − melanin synthesis)): 0%; inhibition at 10 µg/mL (B16 melanoma cells [2]; Mus musculus, 10 μg/ml, B16 cells, read-out: Inhibition rate (100% − melanin synthesis)): 14.2 ± 2.6%; inhibition at 20 µg/mL (B16 melanoma cells [2]; Mus musculus, 20 μg/ml, B16 cells, read-out: Inhibition rate (100% − melanin synthesis)): 14.6 ± 4.6%; IC50 (B16 melanoma cells [2]; [7]): > 45.2 µM; IC50 (B16 melanoma cells [2]; [8]): > 20 µg/mL; CC50 at 72 h (in vitro; B16 melanoma cells): > 0.0452 mM |
|  |  |  | CC1CCC2(C(=O)O)CCC3(C)C(=CCC4C5(C)C(CO)=CC(C)(C)C5CCC43C)C2C1(C)O (stereo not drawn) [Compound 16, hyptadienic acid] |  | active |  |  |  |  |  |  |  |  | 3.7 ± 3.8% | 14.7 ± 4.2% | 28.9 ± 3.2% | 60.3 ± 6.5% |  |  |  | MBC (Propionibacterium acnes; Cutibacterium acnes): 200 µg/mL (≈ 425 µM); MIC (Propionibacterium acnes; Cutibacterium acnes): 100 µg/mL (≈ 212 µM); inhibition at 100 µg/mL (Propionibacterium acnes; Cutibacterium acnes, read-out: Inhibition Rate (P. acnes growth)): 104 ± 3.1%; viability at 25 μg/ml [4]: 99.9 ± 2.3%; S.I (selectivity index, CC50 value/IC50 value) (B16 melanoma cells [2]; B16 melanoma cells): 0.8; IC50 (B16 melanoma cells [2]; Mus musculus, B16, read-out: IC50 (melanin synthesis)): 21.6 µM; inhibition at 1 µg/mL (B16 melanoma cells [2]; [9]): 0.1 ± 4.5%; inhibition at 2.5 µg/mL (B16 melanoma cells [2]; [9]): 1.9 ± 3.4%; inhibition at 5 µg/mL (B16 melanoma cells [2]; [9]): 13.4 ± 5.5%; inhibition at 10 µg/mL (B16 melanoma cells [2]; [9]): 51.8 ± 5%; IC50 (B16 melanoma cells [2]; [8]): 10.1 µg/mL; CC50 at 72 h (in vitro): 7.8 µg/mL and 16.5 µM |
|  |  |  | O=c1c(O)c(-c2ccc(O)c(O)c2)oc2cc(O)cc(O)c12 [Quercetin, reference compound] |  |  |  |  |  |  |  |  |  |  |  |  |  |  |  |  |  | inhibition at 82 µM (RBL-2H3 cells [5]; 82 μM, positive control, read-out: inhibition rate of β-hexosaminidase release): 72.5% |
